Structures can show the parent of a compound that is named as a salt.
How the values were obtained:
[1] = molecular target: CDK6 kinase (Homo sapiens (Human), UniProt Q00534); test: CDK6 kinase activity, Lance Ultra TR-FRET; format: biochemical
[2] = molecular target: DYRK2 kinase (Homo sapiens (Human), UniProt Q92630); test: DYRK2 kinase activity, 33P-ATP / Woodtide substrate; format: biochemical
DYRK2 kinase, sequence (Q92630 whole entry): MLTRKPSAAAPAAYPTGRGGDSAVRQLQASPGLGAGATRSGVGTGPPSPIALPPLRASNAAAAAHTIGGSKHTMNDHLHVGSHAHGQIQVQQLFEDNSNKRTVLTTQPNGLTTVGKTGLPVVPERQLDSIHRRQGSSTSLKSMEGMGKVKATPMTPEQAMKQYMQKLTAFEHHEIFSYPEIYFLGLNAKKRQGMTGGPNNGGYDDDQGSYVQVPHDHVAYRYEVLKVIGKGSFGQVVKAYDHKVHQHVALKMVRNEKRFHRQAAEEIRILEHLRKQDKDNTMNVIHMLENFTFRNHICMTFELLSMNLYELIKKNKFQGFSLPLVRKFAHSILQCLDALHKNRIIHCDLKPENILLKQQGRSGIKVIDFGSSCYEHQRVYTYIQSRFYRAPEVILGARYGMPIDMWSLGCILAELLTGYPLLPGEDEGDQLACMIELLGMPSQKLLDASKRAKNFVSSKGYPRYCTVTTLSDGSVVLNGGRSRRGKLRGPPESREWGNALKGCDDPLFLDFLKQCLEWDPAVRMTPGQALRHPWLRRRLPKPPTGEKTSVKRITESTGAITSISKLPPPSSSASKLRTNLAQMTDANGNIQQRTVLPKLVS

CDK6 kinase, sequence (Q00534 whole entry): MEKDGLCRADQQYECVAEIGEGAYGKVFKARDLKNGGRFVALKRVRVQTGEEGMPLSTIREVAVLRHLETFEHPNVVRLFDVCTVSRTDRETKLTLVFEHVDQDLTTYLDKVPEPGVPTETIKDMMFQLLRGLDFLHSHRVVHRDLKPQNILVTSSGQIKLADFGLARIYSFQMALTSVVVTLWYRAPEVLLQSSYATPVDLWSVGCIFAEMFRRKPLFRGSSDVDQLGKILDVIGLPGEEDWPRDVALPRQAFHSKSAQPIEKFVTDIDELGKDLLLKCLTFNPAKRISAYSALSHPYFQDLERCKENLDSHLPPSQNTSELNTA
CDK6 kinase, sequence (P24385 whole entry partner): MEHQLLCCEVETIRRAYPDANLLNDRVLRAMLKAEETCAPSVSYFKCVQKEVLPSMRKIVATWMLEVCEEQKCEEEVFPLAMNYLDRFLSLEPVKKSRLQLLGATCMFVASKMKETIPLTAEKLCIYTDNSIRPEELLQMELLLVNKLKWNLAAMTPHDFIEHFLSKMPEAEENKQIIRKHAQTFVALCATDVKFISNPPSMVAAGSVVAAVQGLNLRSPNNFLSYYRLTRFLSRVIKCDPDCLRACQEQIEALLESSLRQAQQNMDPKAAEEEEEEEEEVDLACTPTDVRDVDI

| SMILES | IC50 [1] [nM] | IC50 [2] [nM] |
| --- | --- | --- |
| CN(C)c1nc2ccc(-c3nc(Nc4ccc(CN5CCNCC5)cn4)ncc3F)cc2s1 [Example 33, 6-(5-fluoro-2-((5-(piperazine-1-ylmethyl)pyridine-2-yl)amino)pyrimidine-4-yl)-N,N-dimethylbenzothiazole-2-amine hydrochloride] | 59 |  |
| CCN1CCN(Cc2ccc(Nc3ncc(F)c(-c4ccc5nc(N(CC)CC)sc5c4)n3)nc2)CC1 [Example 43] | 15 | 197 |
| CN(C)c1nc2ccc(-c3nc(Nc4ccc(N5CCN(C(=O)OC(C)(C)C)CC5)cn4)ncc3F)cc2s1 [Example 40, tert-butyl 4-(6-((4-(2-(dimethylamino)benzothiazole-6-yl)-5-fluoropyrimidine-2-yl)amino)pyridine-3-yl)piperazine-1-carboxylate] | > 1000 |  |
| CN(C)c1nc2ccc(-c3nc(Nc4ccc(C(=O)N5CCN(C(=O)OC(C)(C)C)CC5)cn4)ncc3F)cc2s1 [Example 34, tert-butyl 4-(6-((4-(2-(dimethylamino)benzothiazole-6-yl)-5-fluoropyrimidine-2-yl)amino)nicotinoyl)piperazine-1-carboxylate] | > 10000 |  |
| CN(C)c1nc2ccc(-c3nc(Nc4ccc(CN5CCN(C(=O)OC(C)(C)C)CC5)cn4)ncc3F)cc2s1 [Example 32, tert-butyl 4-((6-((4-(2-(dimethylamino)benzothiazole-6-yl)-5-fluoropyrimidine-2-yl)amino)pyridine-3-yl)methyl)piperazine-1-carboxylate] | > 10000 |  |
| CN(C)c1nc2ccc(-c3nc(Nc4ccc(CN5CCN(S(C)(=O)=O)CC5)cn4)ncc3F)cc2s1 [Example 37, 6-(5-fluoro-2-((5-((4-(methanesulfonyl)piperazine-1-yl)methyl)pyridine-2-yl)amino)pyrimidine-4-yl)-N,N-dimethylbenzothiazole-2-amine] | > 10000 |  |
| Cc1nc2ccc(-c3nc(Nc4ccc(C(=O)N5CCNCC5)cn4)ncc3F)cc2s1 [Example 17, (6-((5-fluoro-4-(2-methylbenzothiazole-6-yl)pyrimidine-2-yl)amino)pyridine-3-yl)(piperazine-1-yl)ketone hydrochloride] | 93 | 27 |
| CCN(CC)c1nc2ccc(-c3nc(Nc4ccc(CN5CCNCC5)cn4)ncc3F)cc2s1 [Example 45, N,N-diethyl-6-(5-fluoro-2-((5-(piperazine-1-ylmethyl)pyridine-2-yl)amino)pyrimidine-4-yl)benzothiazole-2-amine hydrochloride] | 45 | 290 |
| CCN1CCN(C(=O)c2ccc(Nc3ncc(F)c(-c4ccc5ncsc5c4)n3)nc2)CC1 [Example 1, (6-((4-(benzothiazole-6-yl)-5-fluoropyrimidine-2-yl)amino)pyridine-3-yl)(4-ethylpiperazine-1-yl)ketone] | 144 |  |
| CCOC(=O)N1CCN(Cc2ccc(Nc3ncc(F)c(-c4ccc5nc(N(CC)CC)sc5c4)n3)nc2)CC1 [Example 49, ethyl 4-((6-((4-(2-(diethylamino)benzothiazole-6-yl)-5-fluoropyrimidine-2-yl)amino)pyridine-3-yl)methyl)piperazine-1-carboxylate] | > 10000 |  |
| CC(C)(C)OC(=O)N1CCN(c2ccc(Nc3ncc(F)c(-c4ccc5ncsc5c4)n3)nc2)CC1 [Example 7, tert-butyl 4-(6-((4-(benzothiazole-6-yl)-5-fluoropyrimidine-2-yl)amino)pyridine-3-yl)piperazine-1-carboxylate] | > 10000 |  |
| CC(C)N1CCN(Cc2ccc(Nc3ncc(F)c(-c4ccc5nc(N(C)C)sc5c4)n3)nc2)CC1 [Example 36, 6-(5-fluoro-2-((5-((4-isopropylpiperazine-1-yl)methyl)pyridine-2-yl)amino)pyrimidine-4-yl)-N,N-dimethylbenzothiazole-2-amine] | 142 |  |
| CCN1CCN(Cc2ccc(Nc3ncc(F)c(-c4ccc5nc(N(C)C)sc5c4)n3)nc2)CC1 [Example 30, 6-(2-((5-((4-ethylpiperazine-1-yl)methyl)pyridine-2-yl)amino)-5-fluoropyrimidine-4-yl)-N,N-dimethylbenzothiazole-2-amine] | 254 |  |
| CCOC(=O)N1CCN(Cc2ccc(Nc3ncc(F)c(-c4ccc5ncsc5c4)n3)nc2)CC1 [Example 10, ethyl 4-((6-((4-(benzothiazole-6-yl)-5-fluoropyrimidine-2-yl)amino)pyridine-3-yl)methyl)piperazine-1-carboxylate] | 169 |  |
| CN(C)c1nc2ccc(-c3nc(Nc4ccc(C(=O)N5CCNCC5)cn4)ncc3F)cc2s1 [Example 35, (6-((4-(2-(dimethylamino)benzothiazole-6-yl)-5-fluoropyrimidine-2-yl)amino)pyridine-3-yl)(piperazine-1-yl)ketone hydrochloride] | 41 |  |
| Cc1nc2ccc(-c3nc(Nc4ccc(C(=O)N5CCN(C(=O)OC(C)(C)C)CC5)cn4)ncc3F)cc2s1 [Example 16, tert-butyl 4-(6-((5-fluoro-4-(2-methylbenzothiazole-6-yl)pyrimidine-2-yl)amino)nicotinoyl)piperazine-1-carboxylate] | 86 |  |
| CC(C)N1CCN(Cc2ccc(Nc3ncc(F)c(-c4ccc5ncsc5c4)n3)nc2)CC1 [Example 11, 4-(benzothiazole-6-yl)-5-fluoro-N-(5-((4-isopropylpiperazine-1-yl)methyl)pyridine-2-yl)pyrimidine-2-amine] | 175 | 263 |
| Fc1cnc(Nc2ccc(CN3CCNCC3)cn2)nc1-c1ccc2ncsc2c1 [Example 4, 4-(benzothiazole-6-yl)-5-fluoro-N-(5-(piperazine-1-ylmethyl)pyridine-2-yl)pyrimidine-2-amine hydrochloride] | 268 |  |
| CCOC(=O)N1CCN(Cc2ccc(Nc3ncc(F)c(-c4ccc5nc(N(C)C)sc5c4)n3)nc2)CC1 [Example 38, ethyl 4-((6-((4-(2-(dimethylamino)benzothiazole-6-yl)-5-fluoropyrimidine-2-yl)amino)pyridine-3-yl)methyl)piperazine-1-carboxylate] | > 1000 |  |
| Fc1cnc(Nc2ccc(N3CCNCC3)cn2)nc1-c1ccc2ncsc2c1 [Example 8, 4-(benzothiazole-6-yl)-5-fluoro-N-(5-(piperazine-1-yl)pyridine-2-yl)pyrimidine-2-amine hydrochloride] | 129 | 85 |
| CCN(CC)c1nc2ccc(-c3nc(Nc4ccc(CN5CCN(C(C)C)CC5)cn4)ncc3F)cc2s1 [Example 50] | 31 |  |
| CN(C)c1nc2ccc(-c3nc(Nc4ccc(N5CCNCC5)cn4)ncc3F)cc2s1 [Example 41, 6-(5-fluoro-2-((5-(piperazine-1-yl)pyridine-2-yl)amino)pyrimidine-4-yl)-N,N-dimethylbenzothiazole-2-amine hydrochloride] | 61 |  |
| CCN(CC)c1nc2ccc(-c3nc(Nc4ccc(C(=O)N5CCN(C(C)C)CC5)cn4)ncc3F)cc2s1 [Example 51, (6-((4-(2-(diethylamino)benzothiazole-6-yl)-5-fluoropyrimidine-2-yl)amino)pyridine-3-yl)(4-isopropylpiperazine-1-yl)ketone] | 8 |  |
| CCN1CCN(Cc2ccc(Nc3ncc(F)c(-c4ccc5ncsc5c4)n3)nc2)CC1 [Example 2, 4-(benzothiazole-6-yl)-N-(5-((4-ethylpiperazine-1-yl)methyl)pyridine-2-yl)-5-fluoropyrimidine-2-amine] | 244 |  |
| CC(C)N1CCN(C(=O)c2ccc(Nc3ncc(F)c(-c4ccc5nc(N(C)C)sc5c4)n3)nc2)CC1 [Example 39, (6-((4-(2-(dimethylamino)benzothiazole-6-yl)-5-fluoropyrimidine-2-yl)amino)pyridine-3-yl)(4-isopropylpiperazine-1-yl)ketone] | 57 | 16 |
| CC(C)(C)OC(=O)N1CCN(Cc2ccc(Nc3ncc(F)c(-c4ccc5ncsc5c4)n3)nc2)CC1 [Example 3, tert-butyl 4-((6-((4-(benzothiazole-6-yl)-5-fluoropyrimidine-2-yl)amino)pyridine-3-yl)methyl)piperazine-1-carboxylate] | 272 |  |
| CCN(CC)c1nc2ccc(-c3nc(Nc4ccc(CN5CCN(C(=O)OC(C)(C)C)CC5)cn4)ncc3F)cc2s1 [Example 44, tert-butyl 4-((6-((4-(2-(diethylamino)benzothiazole-6-yl)-5-fluoropyrimidine-2-yl)amino)pyridine-3-yl)methyl)piperazine-1-carboxylate] | > 1000 |  |
| CCN(CC)c1nc2ccc(-c3nc(Nc4ccc(CN5CCN(S(C)(=O)=O)CC5)cn4)ncc3F)cc2s1 [Example 48, N,N-diethyl-6-(5-fluoro-2-((5-((4-(methanesulfonyl)piperazine-1-yl)methyl)pyridine-2-yl)amino)pyrimidine-4-yl)benzothiazole-2-amine] | > 10000 |  |

— patent publication US20230303553A1, “CDK6/DYRK2 DUAL-TARGET INHIBITOR, AND PREPARATION METHOD THEREFOR AND USE THEREOF” (JIANGSU TASLY DIYI PHARMACEUTICAL CO., LTD., priority 2021, published 2023)
